Among the data in patent US9440953B2, “Substituted amino triazoles useful as acidic mammalian chitinase inhibitors” (OncoArendi Therapeutics Sp z o.o., priority 2014, dated 2016) are IC50 values, retold here.

A word on the IC50: it is the midpoint of a concentration-inhibition curve.

In this test the target is recombinant human AMCase (Homo sapiens, UniProt Q9BZP6). Briefly: Human AMCase Activity Assay. The conditions noted are these: recombinant hAMCase, 4-methylumbelliferyl B-D-N,N′-diacetylchitobioside substrate, citrate buffer pH 5.2, 37° C., 60 minutes. It counts as biochemical. On the procedure: Human AMCase Activity Assay
Chain of recombinant human AMCase (Q9BZP6 22-476): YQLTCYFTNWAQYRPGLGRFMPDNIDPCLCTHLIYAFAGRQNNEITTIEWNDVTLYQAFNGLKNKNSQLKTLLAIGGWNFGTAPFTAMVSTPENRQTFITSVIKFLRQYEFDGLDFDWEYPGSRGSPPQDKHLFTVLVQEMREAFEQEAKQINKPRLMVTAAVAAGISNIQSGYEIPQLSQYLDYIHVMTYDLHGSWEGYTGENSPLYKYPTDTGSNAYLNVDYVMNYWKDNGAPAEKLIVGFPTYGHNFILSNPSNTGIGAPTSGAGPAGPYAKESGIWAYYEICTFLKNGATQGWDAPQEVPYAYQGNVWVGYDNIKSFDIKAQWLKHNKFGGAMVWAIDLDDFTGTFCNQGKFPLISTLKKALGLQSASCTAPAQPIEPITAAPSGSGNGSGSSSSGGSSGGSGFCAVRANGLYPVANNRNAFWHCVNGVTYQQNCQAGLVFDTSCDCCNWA
The assay was run in the 96-well plate format, each reaction in the total volume of 100 μL. 4-Methylumbelliferyl B-D-N,N′-diacetylchitobioside hydrate was used as a substrate for the enzyme. Upon hydrolysis by AMCase, the substrate releases 4-methylumbelliferyl (4MU) that, when ionized in basic pH, emits fluorescence at 460 nm.
Briefly, 40 μL of a substrate was added to each well, followed by 10 μL of compound dilution and 50 μL of hAMCase recombinant enzyme solution. […] The fluorescence of the reaction product was measured in Perkin Elmer Envision fluorescent plate reader at an excitation wavelength of 355 nm.
Consider `Nc1n[nH]c(N2CCC(N(CCc3ccc(Cl)cc3)Cc3cccc(-c4nnn[nH]4)c3)CC2)n1` [Example 36, N-(3-(1H-tetrazol-5-yl)benzyl)-1-(3-amino-1H-1,2,4-triazol-5-yl)-N-(4-chlorophenethyl)piperidin-4-amine], for which the IC50 lay in the range of 1 to 10 nM.

With `Nc1n[nH]c(N2CCC(N(CCc3ccc(Cl)cc3)Cc3ccc(F)c(C(=O)O)c3)CC2)n1` [Example 8, 5-(((1-(3-amino-1H-1,2,4-triazol-5-yl)piperidin-4-yl)(4-chlorophenethyl)amino)-methyl)-2-fluorobenzoic acid], the IC50 fell in the range of 10 to 100 nM. Turning to `Nc1n[nH]c(N2CCC(N(CCNC(=O)C(F)(F)F)CCc3ccc(Cl)cc3)CC2)n1` [Example 14, N-(2-((1-(3-amino-1H-1,2,4-triazol-5-yl)piperidin-4-yl)(4-chlorophenethyl)-amino)ethyl)-2,2,2-trifluoroacetamide], the IC50 fell in the range of 100 to 1000 nM. Turning to `CS(=O)(=O)NC(=O)c1ccc(CN(CCc2ccc(Cl)cc2)C2CCN(c3nc(N)n[nH]3)CC2)cc1` [Example 39, 4-(((1-(3-amino-1H-1,2,4-triazol-5-yl)piperidin-4-yl)(4-chlorophenethyl)-amino)methyl)-N-(methylsulfonyl)benzamide], the IC50 is 1 to 10 nM. With `Nc1n[nH]c(N2CCC(N(CCc3ccc(Br)cc3)Cc3cccc(C(=O)O)c3)CC2)n1` [Example 3, 3-(((1-(3-amino-1H-1,2,4-triazol-5-yl)piperidin-4-yl)(4-bromophenethyl)amino)-methyl)benzoic acid], the IC50 fell in the range of 1 to 10 nM.
